The record followed here is US20090253709A1 (NATIONAL DEFENSE MEDICAL CENTER, priority 2008, published 2009).

The structures appear in SMILES notation.

The subject of the first test is UO-31. Description: In vitro cytotoxicity, Development Therapeutics Program. It is filed as cell-based. Particulars: UO-31, renal cancer; 1.0×10^−5 M. An excerpt: (§1) From the in vitro experiments of the Development Therapeutics Program of the Cancer Research Institute, the United States, it was known that the synthetic heterocyclic anthraquinone derivatives of the present invention have different inhibition levels to the different cancer cell lines under the concentration of 1.0×10^−5 M. Please refer to Table 2, which is the result of in vitro cytotoxicity of 2,7-disubstituted anthraquinone derivatives of the present invention.
Take `CN(C)CC(=O)Nc1ccc2c(c1)C(=O)c1cc(NC(=O)CN(C)C)ccc1C2=O` [Compound 8, 2,7-Bis[2-(dimethylamino)acetamido]anthraquinone]: the “Cellular growth rate (%)” value is −82.55%.

The subject of the next test is SF-268. Described as above. Format: cell-based. The conditions noted are these: SF-268, CNS cancer; 1.0×10^−5 M.
Excerpt: as §1
`CN(C)CC(=O)Nc1ccc2c(c1)C(=O)c1cc(NC(=O)CN(C)C)ccc1C2=O` [Compound 8, 2,7-Bis[2-(dimethylamino)acetamido]anthraquinone]: the “Cellular growth rate (%)” value came to 64.92%.

Another test has as its system MCF7. Described as above. Format: cell-based. Particulars: MCF7, breast cancer; 1.0×10^−5 M.
Excerpt: as §1
Turning to `CN(C)CC(=O)Nc1ccc2c(c1)C(=O)c1cc(NC(=O)CN(C)C)ccc1C2=O` [Compound 8, 2,7-Bis[2-(dimethylamino)acetamido]anthraquinone], the “Cellular growth rate (%)” value is 7.92%.

Another test deals with COLO 205. Described as above. Format: cell-based. The conditions noted are these: COLO 205, colon cancer; 1.0×10^−5 M.
Excerpt: as §1
Turning to `CN(C)CC(=O)Nc1ccc2c(c1)C(=O)c1cc(NC(=O)CN(C)C)ccc1C2=O` [Compound 8, 2,7-Bis[2-(dimethylamino)acetamido]anthraquinone], the “Cellular growth rate (%)” value was −73.57%.

The test system of another test is 786-0. Described as above. Format: cell-based. Particulars: 786-0, renal cancer; 1.0×10^−5 M.
Excerpt: as §1
On to `CN(C)CC(=O)Nc1ccc2c(c1)C(=O)c1cc(NC(=O)CN(C)C)ccc1C2=O` [Compound 8, 2,7-Bis[2-(dimethylamino)acetamido]anthraquinone], for which the “Cellular growth rate (%)” value is on record as 68.60%.

A further test deals with SF-295. Described as above. Format: cell-based. Particulars: SF-295, CNS cancer; 1.0×10^−5 M.
Excerpt: as §1
As to `CN(C)CC(=O)Nc1ccc2c(c1)C(=O)c1cc(NC(=O)CN(C)C)ccc1C2=O` [Compound 8, 2,7-Bis[2-(dimethylamino)acetamido]anthraquinone], the “Cellular growth rate (%)” value was −83.51%.

A further test has as its system NCl-H322M. Described as above. It is filed as cell-based. The conditions noted are these: non-small cell lung cancer, 1.0×10^−5 M.
Excerpt: as §1
With `CN(C)CC(=O)Nc1ccc2c(c1)C(=O)c1cc(NC(=O)CN(C)C)ccc1C2=O` [Compound 8, 2,7-Bis[2-(dimethylamino)acetamido]anthraquinone], the “Cellular growth rate (%)” value is 32.42%.

Another test concerns EKVX. Described as above. Format: cell-based. The conditions noted are these: non-small cell lung cancer, 1.0×10^−5 M.
Excerpt: as §1
Take `CN(C)CC(=O)Nc1ccc2c(c1)C(=O)c1cc(NC(=O)CN(C)C)ccc1C2=O` [Compound 8, 2,7-Bis[2-(dimethylamino)acetamido]anthraquinone]: the “Cellular growth rate (%)” value worked out at 102.30%.

Another test relates to TK-10. The description is as above. It is filed as cell-based. The conditions noted are these: TK-10, renal cancer; 1.0×10^−5 M.
Excerpt: as §1
In the case of `CN(C)CC(=O)Nc1ccc2c(c1)C(=O)c1cc(NC(=O)CN(C)C)ccc1C2=O` [Compound 8, 2,7-Bis[2-(dimethylamino)acetamido]anthraquinone], the “Cellular growth rate (%)” value came to 73.47%.

The next test deals with PC-3. Described as above. It is filed as cell-based. The conditions noted are these: PC-3, prostate cancer; 1.0×10^−5 M.
Excerpt: as §1
Turning to `CN(C)CC(=O)Nc1ccc2c(c1)C(=O)c1cc(NC(=O)CN(C)C)ccc1C2=O` [Compound 8, 2,7-Bis[2-(dimethylamino)acetamido]anthraquinone], the “Cellular growth rate (%)” value is 59.00%.

For a further test, the system named is CCRF-CEM. The test is described as above. It is filed as cell-based. The conditions noted are these: leukemia, 1.0×10^−5 M.
Excerpt: as §1
Regarding `CN(C)CC(=O)Nc1ccc2c(c1)C(=O)c1cc(NC(=O)CN(C)C)ccc1C2=O` [Compound 8, 2,7-Bis[2-(dimethylamino)acetamido]anthraquinone], the “Cellular growth rate (%)” value is listed as −13.21%.

The test system of the next test is ACHN. Described as above. Format: cell-based. Particulars: renal cancer, 1.0×10^−5 M.
Excerpt: as §1
For `CN(C)CC(=O)Nc1ccc2c(c1)C(=O)c1cc(NC(=O)CN(C)C)ccc1C2=O` [Compound 8, 2,7-Bis[2-(dimethylamino)acetamido]anthraquinone], the “Cellular growth rate (%)” value stood at 66.43%.

In a further test the test system is NCI/ADR-RES. The description is as above. It is filed as cell-based. Particulars: breast cancer, 1.0×10^−5 M.
Excerpt: as §1
Consider `CN(C)CC(=O)Nc1ccc2c(c1)C(=O)c1cc(NC(=O)CN(C)C)ccc1C2=O` [Compound 8, 2,7-Bis[2-(dimethylamino)acetamido]anthraquinone], for which the “Cellular growth rate (%)” value is reported as 47.84%.

For the next test, the system named is SR. The test is described as above. It is filed as cell-based. The conditions noted are these: leukemia, 1.0×10^−5 M.
Excerpt: as §1
For `CN(C)CC(=O)Nc1ccc2c(c1)C(=O)c1cc(NC(=O)CN(C)C)ccc1C2=O` [Compound 8, 2,7-Bis[2-(dimethylamino)acetamido]anthraquinone], the “Cellular growth rate (%)” value is −46.45%.

Another test concerns OVCAR-4. The test is described as above. It is filed as cell-based. Particulars: OVCAR-4, ovarian cancer; 1.0×10^−5 M.
Excerpt: as §1
In the case of `CN(C)CC(=O)Nc1ccc2c(c1)C(=O)c1cc(NC(=O)CN(C)C)ccc1C2=O` [Compound 8, 2,7-Bis[2-(dimethylamino)acetamido]anthraquinone], the “Cellular growth rate (%)” value stood at 45.70%.

The subject of the next test is LOX IMVI. Described as above. Format: cell-based. The conditions noted are these: melanoma, 1.0×10^−5 M.
Excerpt: as §1
With `CN(C)CC(=O)Nc1ccc2c(c1)C(=O)c1cc(NC(=O)CN(C)C)ccc1C2=O` [Compound 8, 2,7-Bis[2-(dimethylamino)acetamido]anthraquinone], the “Cellular growth rate (%)” value is recorded as −52.34%.

A further test deals with OVCAR-3. The description is as above. The conditions noted are these: OVCAR-3, ovarian cancer; 1.0×10^−5 M. Format: cell-based.
Excerpt: as §1
Take `CN(C)CC(=O)Nc1ccc2c(c1)C(=O)c1cc(NC(=O)CN(C)C)ccc1C2=O` [Compound 8, 2,7-Bis[2-(dimethylamino)acetamido]anthraquinone]: the “Cellular growth rate (%)” value turned out to be 43.63%.

Another test deals with NCl-H226. The description is as above. The conditions noted are these: NCl-H226, non-small cell lung cancer; 1.0×10^−5 M. It is filed as cell-based.
Excerpt: as §1
Consider `CN(C)CC(=O)Nc1ccc2c(c1)C(=O)c1cc(NC(=O)CN(C)C)ccc1C2=O` [Compound 8, 2,7-Bis[2-(dimethylamino)acetamido]anthraquinone], for which the “Cellular growth rate (%)” value was 89.14%.

For another test, the system named is SW-620. The test is described as above. Format: cell-based. The conditions noted are these: SW-620, colon cancer; 1.0×10^−5 M.
Excerpt: as §1
On to `CN(C)CC(=O)Nc1ccc2c(c1)C(=O)c1cc(NC(=O)CN(C)C)ccc1C2=O` [Compound 8, 2,7-Bis[2-(dimethylamino)acetamido]anthraquinone], for which the “Cellular growth rate (%)” value was 23.36%.

The next test has as its system OVCAR-5. The description is as above. Particulars: OVCAR-5, ovarian cancer; 1.0×10^−5 M. It is filed as cell-based.
Excerpt: as §1
Turning to `CN(C)CC(=O)Nc1ccc2c(c1)C(=O)c1cc(NC(=O)CN(C)C)ccc1C2=O` [Compound 8, 2,7-Bis[2-(dimethylamino)acetamido]anthraquinone], the “Cellular growth rate (%)” value worked out at 73.15%.

Another test deals with telomerase. Description: Telomeric repeat amplification protocol (TRAP). Format: biochemical. The conditions noted are these: compounds at 100, 10 and 1 μM; gel electrophoresis.
As for `CN(C)CC(=O)Nc1ccc2c(c1)C(=O)c1cc(NC(=O)CN(C)C)ccc1C2=O` [Compound 8, 2,7-Bis[2-(dimethylamino)acetamido]anthraquinone], the “telomerase inhibition effect in TRAP assay” value is listed as “telomerase inhibition effect”.

A further test relates to hTERT expression. As to the kind of experiment: SEAP assay, H1299/PhTERT-driven SEAP system. Format: cell-based, human. Particulars: Homo sapiens, NCI-H1299, read-out: SEAP (Inhibition μM ± SD). An excerpt:
The condition of the cells for selecting the telomerase inhibitor must be the cancer cells with telomerase activity. H1299 is a non-small cell lung cancer cell line with telomerase activity. The hTERT communication gene linked behind PhTERT which is located at the fifth chromosome of H1299 cell can be expressed; however, this expression is hard to detect. Therefore, the plasmid having the SEAP communication gene linked behind PhTERT was transfected into H1299 cells. Under the identical condition, after PhTERT was activated, the SEAP communication gene linked behind the plasmid was also activated. This gene could be detected by this analytic method while expressing.
If additionally added reagent can inhibit PhTERT, the linked SEAP communication gene will not be expressed, and the hTERT communication gene linked behind PhTERT at the fifth chromosome will not be expressed. […]
The cellular medium after the cellular incubation was transferred into the eppondorf tube, and the activity of endogeneous alkaline phosphatase was inactivated at 65° C. for 10 minutes. After centrification, the mixture was obtained by mixing 50 μl of the supernatant with the equal volume of the SEAP buffer. The mixture and the substrate (120 mM of p-nitrophenylphosphate) were preheated at 37° C. for 10 minutes respectively, and the mixture and the substrate were mixed at a ratio of 1:10 and reacted at 37° C. The absorbance of visible light at 405 nm was determined at the appropriate time intervals, and the enzymatic activity of SEAP was represented by the speed of the increasing absorbance at 405 nm.
The selection of telomerase inhibitors of the anthraquinone compounds provided in the present invention was performed by the H1299/PhTERT-driven SEAP system. SEAP is the communication gene in this drug selection model. The SEAP inhibition was shown as follows. The quantitative cellular medium obtained after the 24-hour drug-treatment and the identical inactivation was reacted with the quantitative SEAP substrate, and the absorbance at 405 nm was detected for 5 time intervals. Subsequently, the linear slope of absorbance to the measuring time was calculated, and the variance of absorbance at 405 nm per minute was represented and compared with the SEAP-producing result of drug-untreated H1299 cells. In addition, the influence of the cell-treated drug solution to the cellular proliferation and the drug toxicity to the cells were considered, and the cellular growth was evaluated by the MTT assay. The drug-treated cells were analyzed by the SEAP assay and the data analysis of MTT assay at the same time. Both results were compared so as to delete the influence of cell number or the activity to SEAP, and the dose-dependent phenomenon could be anticipated in the range of drug concentration designed by the laboratory.
In the preliminary selection, the highest concentration was 1000 μM, and 10-fold serial dilutions were done. Therefore, the final concentrations for treating cells were 1 μM, 10 μM and 100 μM, and the drug concentrations were repeated for 5 times. Since the chemically-synthetic drugs have colors thereon, the SEAP value of drug-treatment without cells was also determined to be the background value which was deducted while treating with the drugs. The candidate drug for inhibiting telomerase on the hTERT gene expression level was evaluated and anticipated.
On to `CN(C)CC(=O)Nc1ccc2c(c1)C(=O)c1cc(NC(=O)CN(C)C)ccc1C2=O` [Compound 8, 2,7-Bis[2-(dimethylamino)acetamido]anthraquinone], for which the activity at 1 µM is 87 ± 12%, the activity at 10 µM came out at 40 ± 20% and the activity at 100 µM was 21 ± 14%.
